From US9790135B2, “Use of acylated carbonic esters of glycerol in agriculture” (AGRONUTRITION, priority 2013, dated 2017)
Blank lines part the entries; values can stand above or below the compound they belong to.

Experiments:
[1] = Stability of the concentrated colloidal suspension towards sedimentation; type: physicochemical; conditions: concentrated colloidal suspension of MnCO3 (and MnSO4) in glycerol/water with the adjuvant
Experimental: The concentrated colloidal suspension is stable towards sedimentation over time—in particular over a period of 12 months—and is capable of being stored at a temperature of from −50° C. to +50° C. without any alteration of its rheological properties or of the stimulating and/or nutritive properties of the nutritive composition obtained by dilution of the concentrated colloidal suspension. Such a concentrated colloidal suspension can therefore be proposed for sale, marketed and distributed while retaining the stimulating and/or nutritive properties of the nutritive composition.
Cyclic glycerol carbonate (CG) of formula (VI), glycerol, water and manganese carbonate (MnCO3) in the form of a solid in the divided state, the solid particles of which have a mean size of approximately 2 μm, are mixed.

soya = test: Foliar manganese content of soya after foliar application of nutritive MnCO3 compositions; conditions: soya crop, 500 g manganese carbonate per hectare
[2] = tested on: winter common wheat (variety Quality, ARVALIS); test: Manganese content retained in leaves of treated winter common wheat; type: in vivo
Experimental: A powder of manganese carbonate (MnCO3, CAS 598-62-9) having a mean particle size of substantially approximately 2 μm is prepared by grinding. A concentrated colloidal suspension comprising 58.7% of this powder in a liquid composition comprising 1.5% glycerol carbonate acetate (ECG-C2, as described in Example 3 and in Table 1), […], 7.5% water and 1% jojoba oil, the indicated percentages being percentages by mass. The concentrated colloidal suspension is diluted in water to form a treatment composition (Mn385) according to the invention which is suitable for applying, by spraying on the cultivated surface area, a quantity of manganese carbonate of 385 g per hectare of cultivated surface area.
There are also prepared: • a concentrated colloidal suspension as described in Example 4, and this concentrated colloidal suspension is diluted in water to form a nutritive composition (Mn457) according to the invention which is suitable for applying, by spraying, a quantity of manganese carbonate of 457 g per hectare of surface area; and • a concentrated colloidal suspension as described in Example 7, and this concentrated colloidal suspension is diluted in water to form a nutritive composition (Mn509) according to the invention which is suitable for applying, by spraying, a quantity of manganese carbonate of 509 g per hectare of cultivated surface area.
The nutritive compositions Mn385, Mn457 and Mn509 according to the invention are applied by spraying to plots of 4 parcels having a surface area of 16 m^2 cultivated with winter common wheat (variety “Quality”, ARVALIS).
There are also prepared in parallel: • on a plot of 4 16 m^2 parcels, a crop of winter common wheat treated by spraying with water, as negative control; and • on a plot of 4 16 m^2 parcels, a crop of winter common wheat treated with MnCO3 on its own (without adjuvant according to the invention) at a rate of 500 g per hectare, as control treatment; and • on a plot of 4 16 m^2 parcels, a crop of winter common wheat treated, by way of comparison, with a formulation of MANTRAC 500 at a rate of 500 g of MnCO3 per hectare.
The manganese content retained in the leaves of treated common wheat is measured one day (D+1), seven days (D+7), 14 days (D+14) and 21 days (D+21) after application. To that end, the leaves are removed and washed three times with water to remove the manganese carbonate that has not been absorbed by the plant, and the manganese absorbed into the leaves is then assayed. The results are given in Table 2 below and are expressed in ppm (μg of manganese per gram of leaf).
The kinetics of daily MnCO3 assimilation in the leaves are measured.

stability of the concentrated colloidal suspension (settling of particles) [1]: stable over time
Compound: CC(=O)OCC1COC(=O)O1 (stereo not drawn) [ECG-C2, cyclic α/α′-acetylated glycerol carbonic ester]

stability of the concentrated colloidal suspension (settling of particles) [1]: stable over time
Compound: CCCCCCC(=O)OCC1COC(=O)O1 (stereo not drawn) [ECG-C7, cyclic α/α′-heptanoylated glycerol carbonic ester]

stability of the concentrated colloidal suspension (settling of particles) [1]: stable over time
Compound: CCCCCCCCC(=O)OCC1COC(=O)O1 (stereo not drawn) [ECG-C9, cyclic α/α′-nonanoylated glycerol carbonic ester]

stability of the concentrated colloidal suspension (settling of particles) [1]: stable over time
Compound: C=CCCCCCCCCC(=O)OCC1COC(=O)O1 (stereo not drawn) [ECG-C11:1, cyclic α/α′-undecylenoylated glycerol carbonic ester]

stability of the concentrated colloidal suspension (settling of particles) [1]: stable over time
Compound: CCCCCCCC/C=C\CCCCCCCC(=O)OCC1COC(=O)O1 (stereo not drawn) [ECG-C18:1, cyclic α/α′-oleylated glycerol carbonic ester]
foliar manganese content reached (maximum) up to four days after application (soya): greater than 250 ppm

Compound: manganese carbonate [MnCO3 on its own]
results relative to the negative control (water) (in words) ([2]; 500 g per hectare, without adjuvant): do not differ from the results obtained with the negative control | manganese content retained in the leaves, D + 14 ([2]; 14 days after application): 112.50 +/− 45.35 ppm (μg of manganese per gram of leaf) | manganese content retained in the leaves, D + 21 ([2]; 21 days after application): 95.43 +/− 5.95 ppm (μg of manganese per gram of leaf) | manganese content retained in the leaves, D + 1 ([2]; one day after application, leaves washed three times with water): 84.83 +/− 28.01 ppm (μg of manganese per gram of leaf) | manganese content retained in the leaves, D + 7 ([2]; seven days after application): 74.83 +/− 19.14 ppm (μg of manganese per gram of leaf)
